One compound from US20080287662A1, “Balanites Aegyptiaca Saponins and Uses Thereof” (priority 2005, published 2008) can be followed below.

Marks after values point to notes of the source that are not given here.

This test relates to mung bean cuttings. The test is described as follows: Rooting of mung bean cuttings. It is filed as in vivo. As to conditions: IBA 100 μM, saponins 100 ppm; rooting assessed seven days. As for the experimental part:
This effect was increased as saponin concentration increased up to 500 ppm for Balanites mesocarp extract saponins and 50 ppm for Balanites root extract saponins, and up to 100 ppm for Quillaja saponaria bark extract saponins. The treatment solution was replaced by fresh water after 24 h and the rooting was assessed 10 days after the initiation of the experiment. The stimulating effect of saponins on root formation may be related to their hormone-like effect, but their effect on root elongation seems to be mainly due to their influence on increase of water uptake. The enhancing effect of saponins on rooting of mung bean cuttings when applied together with the synthetic plant hormone indole-3-butyric acid (IBA) is shown in Table 17. […] Similar, but weaker, enhancing effect was found with Quillaja bark extract saponins (the treatment solution was replaced by fresh water after 24 h and the rooting was assessed seven days after the initiation of the experiment).

For the compound `O=C(O)CCCc1c[nH]c2ccccc12` [IBA, indole-3-butyric acid], the Average root length was 10.1 ± 0.4^cd mm and the “Number of roots per cutting” value was 28.3 ± 1.3^c.
